From ChEMBL document CHEMBL5137035 (Eur J Med Chem, 2022) come the findings set out here.

For assay [1], the target named is T1, Dihydroorotate dehydrogenase (quinone), mitochondrial (Homo sapiens, UniProt Q02127). In words: Inhibition of human N-terminal SUMO-tagged DHODH expressed in Escherichia coli BL21(DE3) at 1 uM using dihydroorotate as substrate by DCIP based microplate reader analysis relative to control.
The target of assay [2] is T1, Dihydroorotate dehydrogenase (quinone), mitochondrial. In words: Inhibition of human N-terminal SUMO-tagged DHODH expressed in Escherichia coli BL21(DE3) using dihydroorotate substrate by DCIP based microplate reader analysis.
Assay [3] has the same target. In words: Inhibition of human N-terminal SUMO-tagged DHODH expressed in Escherichia coli BL21(DE3) at 100 nM using dihydroorotate as substrate by DCIP based microplate reader analysis relative to control.

A word on the inhibition: it is the change of the read-out against control, counted positive when it falls. Read a high inhibition as a strong effect. Usually IC50 stands for the concentration at which inhibition is half-maximal. Read a high IC50 as weaker potency.

T1 sequence (Q02127 whole entry): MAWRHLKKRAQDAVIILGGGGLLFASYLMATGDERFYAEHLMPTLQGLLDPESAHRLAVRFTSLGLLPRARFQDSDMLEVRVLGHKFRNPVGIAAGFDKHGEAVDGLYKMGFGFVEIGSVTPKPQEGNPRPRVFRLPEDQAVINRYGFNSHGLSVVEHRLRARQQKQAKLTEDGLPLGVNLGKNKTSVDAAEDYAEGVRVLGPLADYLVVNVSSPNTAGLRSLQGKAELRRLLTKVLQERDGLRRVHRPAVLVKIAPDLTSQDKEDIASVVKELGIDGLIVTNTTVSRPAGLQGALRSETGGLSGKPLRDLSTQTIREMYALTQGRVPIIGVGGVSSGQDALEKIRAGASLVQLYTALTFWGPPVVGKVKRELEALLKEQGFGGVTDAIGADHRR

On to `COc1cccc(-c2cc(F)c(NC(=O)/C(C#N)=C(/C)O)cc2OCC(C)C)c1`, for which the inhibition turned out to be 96.2% in assay [1] and 77.6% in assay [3]. In assay [2], this compound showed a half-inhibitory concentration (IC50) of 30.1 nM.
On to `CCC(C)Oc1cc(NC(=O)/C(C#N)=C(/C)O)c(F)cc1-c1ccc(F)cc1` (stereo unspecified), for which the inhibition was 96.1% in assay [1] and 72.5% in assay [3]. This compound had an IC50 in assay [2] of 37.8 nM.
Turning to `CCC(C)Oc1cc(NC(=O)/C(C#N)=C(/C)O)c(F)cc1-c1ccccc1C` (stereo unspecified), the results for the inhibition in assay [1] and in assay [3] were 96.6% and 78.6%, respectively. In addition, the half-inhibitory concentration (IC50) in assay [2] came to 31 nM.
Regarding `COc1cccc(-c2cc(F)c(NC(=O)/C(C#N)=C(/C)O)cc2OCc2ccccc2F)c1`, the values for the inhibition in assay [1] and in assay [3] were 89.8% and 48.3%, respectively.
In the case of `CCC(C)Oc1cc(NC(=O)/C(C#N)=C(/C)O)c(F)cc1-c1cccc(Cl)c1` (stereo unspecified), the inhibition in assay [1] is 98.9%; in assay [3], 87.5%. For the same compound, the IC50 in assay [2] was 20.1 nM.
On to `CCC(C)Oc1cc(NC(=O)/C(C#N)=C(/C)O)c(F)cc1-c1ccccc1F` (stereo unspecified), for which the inhibition stood at 97.3% in assay [1] and 82.9% in assay [3]. This compound displayed an IC50 in assay [2] of 27.3 nM.
In the same order, the values of `COc1cccc(-c2cc(F)c(NC(=O)/C(C#N)=C(/C)O)cc2OCC2CCCCC2)c1` are 93.6%, 64% and 43.1 nM.
Turning to `CCC(C)Oc1cc(NC(=O)/C(C#N)=C(/C)O)c(F)cc1-c1cc(Cl)ccc1C` (stereo unspecified), the inhibition in assay [1] amounted to 85.5%; in assay [3] it was 47.2%.
Taken in the same sequence, the figures for `COc1cccc(-c2ccc(NC(=O)/C(C#N)=C(/C)O)cc2OC)c1` were 89.2% and 48.4%.
Regarding `CCC(C)Oc1cc(NC(=O)/C(C#N)=C(/C)O)c(F)cc1-c1cccc(Cl)c1C` (stereo unspecified), the inhibition in assay [1] came out at 98%; in assay [3], 85.3%. In assay [2], this compound showed an IC50 of 22.2 nM.
Taken in the same sequence, the figures for `CCC(C)Oc1cc(NC(=O)/C(C#N)=C(/C)O)c(F)cc1-c1cc2ccccc2o1` (stereo unspecified) were 97.4%, 89.9% and 12.9 nM.
Taken in the same sequence, the figures for `CCCOc1cc(NC(=O)/C(C#N)=C(/C)O)c(F)cc1-c1cccc(OC)c1` were 93.6%, 68.2% and 34.6 nM.
With `C=C(C)COc1cc(NC(=O)/C(C#N)=C(/C)O)c(F)cc1-c1cccc(OC)c1`, the results for the inhibition in assay [1] and in assay [3] were 92.9% and 58.6%, respectively.
Regarding `CCC(C)Oc1cc(NC(=O)/C(C#N)=C(/C)O)c(F)cc1-c1ccnc(F)c1` (stereo unspecified), the inhibition in assay [1] worked out at 98.5%; in assay [3], 87.7%. This compound returned a concentration for half-maximal inhibition (IC50) in assay [2] of 20.3 nM.
For `COc1cccc(-c2cc(F)c(NC(=O)/C(C#N)=C(/C)O)cc2OCc2c(F)cccc2Cl)c1`, the inhibition in assay [1] was found to be 79.7%; in assay [3] it was 40.3%.
Take `CCC(CC)Oc1cc(NC(=O)/C(C#N)=C(/C)O)c(F)cc1-c1cccc(OC)c1`: the inhibition amounted to 98.1% in assay [1] and 84.6% in assay [3]. This compound also registered an IC50 in assay [2] of 16.4 nM.
`C/C(O)=C(\C#N)C(=O)Nc1ccc(C(F)(F)F)cc1` registered an inhibition in assay [1] of 71.2%.
For `CCC(C)Oc1cc(NC(=O)/C(C#N)=C(/C)O)c(F)cc1-c1cccc(F)c1` (stereo unspecified), the inhibition in assay [1] was found to be 97.2%; in assay [3], 83.6%. Besides, in assay [2], the IC50 came out at 26.8 nM.
`CCC(C)Oc1cc(NC(=O)/C(C#N)=C(/C)O)c(F)cc1-c1ccc(F)nc1` (stereo unspecified): the inhibition is 89.7% in assay [1] and 52.3% in assay [3].
Taken in the same sequence, the figures for `CCC(C)Oc1cc(NC(=O)/C(C#N)=C(/C)O)c(F)cc1-c1ccc(C(F)(F)F)cc1` (stereo unspecified) were 77.2% and 34.1%.
With `CCC(C)Oc1cc(NC(=O)/C(C#N)=C(/C)O)c(F)cc1-c1cccc(F)c1C` (stereo unspecified), the inhibition in assay [1] worked out at 97.8%; in assay [3], 82.5%. Also, the IC50 in assay [2] turned out to be 26.1 nM.
`C=CCOc1cc(NC(=O)/C(C#N)=C(/C)O)c(F)cc1-c1cccc(OC)c1`: the results for the inhibition in assay [1] and in assay [3] were 92.5% and 58.5%, respectively.
